“And” between values parts separate entries of the source, which are not always exact repeats. Equal entries are not always repeated. Where no end group is shown, it is not given here.
What was measured:
AKT1 = biological target: T1, AKT1 (Homo sapiens, UniProt P31749); test: AKT1 radioactive in vitro kinase assay (32P incorporation into Ser-21 GSK-3 substrate peptide); format: biochemical
T1 construct: purchased Upstate Biotechnology
Method: AKT1 catalytic activity was determined by measuring the incorporation of −^32P into Ser-21 glycogen synthase kinase 3[…] (GSK-3[…]) substrate peptide. Histogram bars represent the number of −^32P counts per minute (CPM). Reactions were carried out in the presence of different concentrations of the ZaTa peptide (SEQ ID NO:60), as well as a control peptide (SEQ ID NO:59) which shares 11 out of 17 amino acids in common with the N-terminus of the ZaTa peptide.
Of particular interest with regard to inhibitory activity toward AKT was peptide […](SEQ ID NO:60) which flanked the Thr-197 phosphorylation site of PKAc. […] Furthermore, the inhibitory effect of ZaTa peptide was compared with an adjacent peptide ([…] SEQ ID NO:59), a peptide that overlaps with the 11 N-terminal amino acid residues of the ZaTa peptide and carries the Thr-197 phosphorylation site. In this assay, the level of incorporation of −^32 P into Ser-21 GSK-3[…] substrate peptide was used as the measure of AKT1 in vitro catalytic activity.
For non-radioactive kinase assays, typically 25 ng of active AKT1 or PKAc (Upstate Biotechnology) was used in a kinase assay reaction buffer (20 mM MOPS, pH 7.2, 25 mM […]-glycerophosphate, 5 mM EGTA, 1 mM Na3VO4, 1 mM dithiothreitol, 75 mM MgCl2, and 0.5 mM ATP) in the presence of either 1 μL of Ser-9 GSK-3 GST fusion protein (Cell Signaling), or recombinant DARPP-32 (10 μg). For the radioactive kinase assays, typically 25 ng of kinase was added to the kinase assays reaction buffer (20 mM MOPS, pH 7.2, 25 mM […]-glycerophosphate, 5 mM EGTA, 1 mM Na3VO4, 1 mM dithiothreitol) containing 30 μM of dephosphorylated Ser-21 GSK-3 substrate peptide (Upstate Biotechnology) in the presence of different concentrations of inhibitor. Reactions were initiated by adding [−^32P] ATP (10 μCi/reaction) which was diluted in the reaction buffer, plus 500 μM cold ATP and 75 mM MgCl2. Kinase reactions were incubated 30° C. for 10-20 minutes. A 5 μL aliquot of the reaction was transferred to phosphocellulose paper, washed for 30 minutes with dH2O, and CPM of samples read in scintillation counter.

N2a cells = test: Trypan blue staining, live and dead cell count; format: cell-based
From the text: Therefore, in addition to capturing live images, cells were stained with trypan blue at different time intervals following treatment with ZaTa and counted by a light microscope using a hemocytometer.

[1] = system: non-proliferating neurons in primary cortical culture; test: TUNEL assay in primary cortical neuron culture; format: cell-based; conditions: 1 or 5 µM, 72-hour treatment, compared to control peptide
Method: It is now well-established that AKT protects against apoptosis through phosphorylation and inhibition of pro-apoptotic mediators such as BAD, FOXO family members and IKK-[…] (Datta, et al. (1999) Genes Dev. 13:2905-2927). […] Primary neurons were treated with DMSO, 1 µM or 5 µM of either ZaTa or the control peptide for a duration of 1, 3, 16, 24, 48 or 72 hours. The number of apoptotic cells was counted following the TUNEL assay. […] The increase in the number of apoptotic neurons following treatment with ZaTa was consistent with its potent intra-neuronal inhibition of AKT.

PKA, PKC, CDKs = test: In vivo phosphorylation of substrates of PKA, PKC, CDKs (consensus-site phospho-specific antibodies); set-up: species or system mouse; conditions: after in vivo injection
Method: To analyze in vivo selectivity, ZaTa was injected into one hemisphere and DMSO in the other hemisphere, as above, and a series of western blot analyses was preformed with phospho-specific antibodies which recognize a phosphorylated substrate or each one of the kinases that ZaTa inhibited at higher concentrations in vitro. […] Given the high functional and structural homology between p70S6K and AKT, the in vivo inhibitory effect of ZaTa on p70S6K was contemplated. Furthermore, the in vivo effect of ZaTa on the phosphorylation levels of substrates for PKA, PKC, CDKs using phospho-specific antibodies recognizing the phosphorylated consensus sites of these kinases was analyzed. In contrast to the consistent decrease in phosphorylation of AKT substrates, significant changes in the phosphorylation level of PKA, PKC and CDKs substrates was not observed after in vivo injection of ZaTa. […]

T1 sequence (P31749 whole entry): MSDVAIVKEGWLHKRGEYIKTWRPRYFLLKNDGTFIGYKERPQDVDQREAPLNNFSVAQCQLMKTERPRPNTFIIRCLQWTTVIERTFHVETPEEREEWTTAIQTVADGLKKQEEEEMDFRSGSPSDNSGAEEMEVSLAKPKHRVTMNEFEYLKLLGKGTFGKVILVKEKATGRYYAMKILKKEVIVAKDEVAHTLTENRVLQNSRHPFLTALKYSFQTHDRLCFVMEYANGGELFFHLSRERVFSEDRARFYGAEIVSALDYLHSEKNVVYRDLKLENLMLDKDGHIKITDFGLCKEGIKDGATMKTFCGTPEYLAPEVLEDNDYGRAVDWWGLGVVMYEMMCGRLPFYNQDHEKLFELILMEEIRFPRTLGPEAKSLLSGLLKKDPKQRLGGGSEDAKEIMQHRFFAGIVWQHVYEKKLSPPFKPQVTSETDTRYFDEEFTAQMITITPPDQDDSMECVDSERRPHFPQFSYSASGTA

AKRVKGRTWTLCGTPEY [ZaTa]
IC50 (AKT1; 32P incorporation into Ser-21 GSK-3 substrate peptide, read-out: IC-50, AKT1 catalytic activity in vitro): ~100 nM and 100 nM
IC-50 of the ZaTa peptide (in words) (AKT1; FIG. 1 legend): within a nanomolar range
whether peptide is a substrate for AKT (AKT1; control kinase reactions with peptide and AKT only): not a substrate for AKT
increase in the number of dead cells (N2a cells; counted at time points from 12 to 72 hours): not seen
number of live cells, trypan blue (N2a cells; different time intervals): dose-dependent decrease
number of TUNEL-positive cells [1]: marked dose-dependent increase
changes in phosphorylation level of PKA, PKC and CDKs substrates (PKA, PKC, CDKs): not observed

— patent publication US8541670B2, “Compositions and methods for inhibiting tumor cell growth” (priority 2007, dated 2013)
